From patent US20260248938A1, “COMBINATION OF ANTI-CDH6 ANTIBODY-DRUG CONJUGATE AND HIF-2alpha INHIBITOR” (DAIICHI SANKYO COMPANY, LIMITED, priority 2023, published 2026)

Tests used:
[1] = system: Human kidney cancer cell line 786-O cells; assay type: in vivo; details: 786-O subcutaneous xenograft, nude mice, ADC (1) 1 mg/kg i.v. on Day 0, belzutifan 0.3 mg/kg orally once daily, five times a week for 3 weeks
Procedure: Mouse: Six-week-old female BALB/c nude mice (The Jackson Laboratory Japan, Inc.) were subjected to an experiment.
Measurement and calculation expression: The long diameter and short diameter of each tumor were measured twice a week using electronic digital calipers (CD-15CX, Mitutoyo Corp.), and the volume of the tumor was then calculated. The following expression was used in the calculation.
The anti-CDH6 antibody-drug conjugate (1) was diluted with ABS buffer (10 mM acetate buffer (pH 5.5), 5% sorbitol), and the dilution was intravenously administered at a dose of 10 mL/kg to the tail of each mouse. Belzutifan was suspended in 10% dimethyl sulfoxide, 40% polyethylene glycol 300, 5% Tween-80, and 45% physiological saline, and the suspension was administered orally at a dose of 10 mL/kg.
Human kidney cancer cell line 786-O cells purchased from ATCC (American Type Culture Collection) were suspended in Matrigel Matrix, and the cell suspension was subcutaneously inoculated at a dose of 4×10^6 cells to the right flank region of each female nude mouse. […]
Tumor growth inhibition (TGI) is calculated according to the following expression.
Change from baseline (%) (percentage change of average tumor volume on Day 21 from an average tumor volume on Day 0 as a baseline) was calculated according to the following expression, and is shown in FIG. 15.

[2] = molecular target: T1, Topoisomerase I (Homo sapiens, UniProt P11387); details: Ogitani Y. et al., Clinical Cancer Research 2016; cited from earlier work
T1 sequence (P11387 1-765): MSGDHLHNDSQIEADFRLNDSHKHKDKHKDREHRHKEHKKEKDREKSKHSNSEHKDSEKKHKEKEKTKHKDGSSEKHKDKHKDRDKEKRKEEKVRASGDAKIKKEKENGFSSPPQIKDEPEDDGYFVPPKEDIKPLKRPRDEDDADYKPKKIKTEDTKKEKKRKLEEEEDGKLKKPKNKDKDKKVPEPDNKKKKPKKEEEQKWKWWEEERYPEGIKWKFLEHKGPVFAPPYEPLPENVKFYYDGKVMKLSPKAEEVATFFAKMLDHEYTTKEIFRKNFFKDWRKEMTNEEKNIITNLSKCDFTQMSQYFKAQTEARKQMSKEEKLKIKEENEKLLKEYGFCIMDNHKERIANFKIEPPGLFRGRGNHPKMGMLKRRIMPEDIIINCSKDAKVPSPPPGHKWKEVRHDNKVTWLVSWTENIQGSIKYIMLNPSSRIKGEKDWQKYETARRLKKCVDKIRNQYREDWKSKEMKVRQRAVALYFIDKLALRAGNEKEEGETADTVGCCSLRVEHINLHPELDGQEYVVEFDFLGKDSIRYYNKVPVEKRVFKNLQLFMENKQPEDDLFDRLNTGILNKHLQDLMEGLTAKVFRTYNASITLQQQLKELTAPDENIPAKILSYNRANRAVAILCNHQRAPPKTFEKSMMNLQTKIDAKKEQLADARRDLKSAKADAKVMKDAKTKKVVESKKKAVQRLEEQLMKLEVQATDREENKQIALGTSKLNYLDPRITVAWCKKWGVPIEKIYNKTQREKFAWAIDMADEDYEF

Row | Structure (SMILES) | Tumor growth inhibition (TGI) ([1]; Day 21) [%] | Change from baseline (%) (percentage change of average tumor volume on Day 21 from average tumor volume on Day 0) ([1]; Day 21 vs Day 0) | Topoisomerase I inhibitory effect [2]
1 | CS(=O)(=O)c1ccc(Oc2cc(F)cc(C#N)c2)c2c1[C@H](O)[C@H](F)[C@@H]2F [Belzutifan, belzutifan] | 29 | 53 | 
2 | CC[C@@]1(O)C(=O)OCc2c1cc1n(c2=O)Cc2c-1nc1cc(F)c(C)c3c1c2[C@@H](NC(=O)CO)CC3 [compound (A)] |  |  | confirmed to have a topoisomerase I inhibitory effect
